Measurements from patent US12630547B2, “RAS protein degraders, pharmaceutical compositions thereof, and their therapeutic applications” (BioTheryX, Inc., priority 2019, dated 2026).

Columns and labels:
Format in all cases: cell-based
H358 cells = assay: Cell viability assay (CELLTITER-GLO), H358 cells; settings: Table 4; 3 days
Method: (§1) MOLM-13 cells, MV-4-11 cells, H23, and H358 cells were independently cultured in RPMI 1640 media supplemented with 10% fetal bovine serum, streptomycin and penicillin. The cells were plated in white walled 96-well plates at 4,000 cells/well. The cells were incubated in DMSO (control) or a compound for 3 days at 37° C. under 5% CO2. A CELLTITER-GLO® reagent (100 μL) was then added to each well. After a 10 min incubation with shaking, luminescence was measured using an ENVISION® multimode plate reader.
In Tables 1 and 2, each compound was tested at 10 μM; and in Table 3, each compound was tested at 1 μM. In Tables 1 to 3, the cell viability values as % DMSO are reported as “A,” “B,” “C,” or “D;” where “A” represents a % viability value of less than 10%; “B” represents a % viability value of no less than 10% and less than 25%; “C” represents a % viability value of no less than 25% and less than 50%; and “D” represents a % viability value of no less than 50%. Compound A is
(§2) IC50 values are summarized in Table 4, where “A” represents an IC50 value of no greater than 1 μM, “B” represents an IC50 value of greater than 1 μM and no greater than 5 μM, “C” represents an IC50 value of greater than 5 μM and no greater than 10 μM, and “D” represents an IC50 value of greater than 10 μM.

H23 cells = assay: Cell viability assay (CELLTITER-GLO), H23 cells; settings: Table 4; 3 days
Method: as §1, §2

MOLM-13 cells = assay: Cell viability assay (CELLTITER-GLO), MOLM-13 cells; settings: Homo sapiens, MOLM-13, 72 h, 3 days, read-out: Effect on MOLM-13 cell viability (% DMSO); for viability at 10 µM: Table 2, compound at 10 μM; for viability at 1 µM: Table 3, compound at 1 μM
Method: as §1
In Tables 1 and 2, each compound was tested at 10 μM; and in Table 3, each compound was tested at 1 μM. In Tables 1 to 3, the cell viability values as % DMSO are reported as “A,” “B,” “C,” or “D;” where “A” represents a % viability value of less than 10%; “B” represents a % viability value of no less than 10% and less than 25%; “C” represents a % viability value of no less than 25% and less than 50%; and “D” represents a % viability value of no less than 50%. Compound A is […]

SMILES	Inhibition of H358 cells, IC50 (class) (H358 cells)	Inhibition of H23 cells, IC50 (class) (H23 cells)	viability at 10 µM (MOLM-13 cells)	other results
C=CC(=O)N1CCN(c2ncnc3c(F)c(-c4c(F)cccc4OCCCCCCC(=O)N[C@H](C(=O)N4C[C@H](O)C[C@H]4C(=O)NCc4ccc(-c5scnc5C)cc4)C(C)(C)C)c(Cl)cc23)CC1 [Compound 50, (2S,4R)-1-((2S)-2-(7-(2-(4-(4-Acryloylpiperazin-1-yl)-6-chloro-8-fluoroquinazolin-7-yl)-3-fluorophenoxy)heptanamido)-3,3-dimethylbutanoyl)-4-hydroxy-N-(4-(4-methylthiazol-5-yl)benzyl)pyrrolidine-2-carboxamide]	A′	B′		
C=CC(=O)N1CCN(c2ncnc3c(F)c(-c4cc(OCCOCCOCCC(=O)NCCNc5cccc6c5CN(C5CCC(=O)NC5=O)C6=O)ccc4F)c(Cl)cc23)CC1 [Compound 39, 3-(2-(2-((R)-3-(4-(4-Acryloylpiperazin-1-yl)-6-chloro-8-fluoroquinazolin-7-yl)-4-fluorophenoxy)ethoxy)ethoxy)-N-(2-((2-(2,6-dioxopiperidin-3-yl)-1-oxoisoindolin-4-yl)amino)ethyl)propanamide]	D′	D′		
CCC(=O)N1CCN(c2nc(NCCC(=O)N(C)C)nc3c(F)c(-c4c(F)cccc4OCCCCCCCN4CCC(c5cc(F)cc6c5CN(C5CCC(=O)NC5=O)C6=O)CC4)c(Cl)cc23)CC1 (stereo not shown) [Compound 86, 3-((6-Chloro-7-(2-((7-(4-(2-(2,6-dioxopiperidin-3-yl)-6-fluoro-1-oxoisoindolin-4-yl)piperidin-1-yl)heptyl)oxy)-6-fluorophenyl)-8-fluoro-4-(4-propionylpiperazin-1-yl)quinazolin-2-yl)amino)-N,N-dimethylpropanamide]	B′	B′		
CCC(=O)N1CCN(c2nc(OCCOCCOCCOCCNc3cccc4c3C(=O)N(C3CCC(=O)NC3=O)C4=O)nc3c2CCN(c2cccc4ccccc24)C3)C[C@H]1C (stereo partly drawn) [Compound 48, 2-(2,6-Dioxopiperidin-3-yl)-4-((2-(2-(2-(2-((4-((R)-3-methyl-4-propionylpiperazin-1-yl)-7-(naphthalen-1-yl)-5,6,7,8-tetrahydropyrido[3,4-d]pyrimidin-2-yl)oxy)ethoxy)ethoxy)ethoxy)ethyl)-amino)isoindoline-1,3-dione]	D′	D′		
C=C(Cl)C(=O)N1CCN(c2nc(OC[C@@H]3CCCN3C)nc3c(F)c(-c4c(F)cccc4OCCCCCCCN4CCC(c5cc6c(cc5F)C(=O)N(C5CCC(=O)NC5=O)C6)CC4)c(Cl)cc23)C[C@H]1CC#N (stereo partly drawn) [Compound 132, 2-((2R)-4-(6-Chloro-7-(2-((7-(4-(2-(2,6-dioxopiperidin-3-yl)-6-fluoro-1-oxoisoindolin-5-yl)piperidin-1-yl)heptyl)oxy)-6-fluorophenyl)-8-fluoro-2-(((S)-1-methylpyrrolidin-2-yl)methoxy)quinazolin-4-yl)-1-(2-chloroacryloyl)piperazin-2-yl)acetonitrile]	B′	B′		
C=C(Cl)C(=O)N1CCN(c2ncnc3c(F)c(-c4c(F)cccc4OCCCCCCCN4CCCC(c5cc(F)cc6c5CN(C5CCC(=O)NC5=O)C6=O)C4)c(Cl)cc23)CC1 (stereo not shown) [Compound 106, 3-(4-(1-(7-(2-(6-Chloro-4-(4-(2-chloroacryloyl)piperazin-1-yl)-8-fluoroquinazolin-7-yl)-3-fluorophenoxy)heptyl)piperidin-3-yl)-6-fluoro-1-oxoisoindolin-2-yl)piperidine-2,6-dione]	A′	A′		
C=CC(=O)N1CC(c2nc3ccc(-c4cc(O)cc5ccccc45)cc3c(=O)n2CCOCCOCCNCc2ccc(OCc3scc4c3CN([C@H]3CCC(=O)NC3=O)C4=O)cc2)C1 [Compound 14, (S)-3-(1-((4-(((2-(2-(2-(2-(1-Acryloylazetidin-3-yl)-6-(3-hydroxynaphthalen-1-yl)-4-oxoquinazolin-3(4H)-yl)ethoxy)ethoxy)ethyl)amino)methyl)phenoxy)methyl)-4-oxo-4H-thieno[3,4-c]pyrrol-5(6H)-yl)piperidine-2,6-dione]			≥ 50%	
CCC(=O)N1CCN(c2ncnc3c(F)c(-c4c(F)cccc4OCCCCCCCNC(=O)NCc4scc5c4CN(C4CCC(=O)NC4=O)C5=O)c(Cl)cc23)CC1 (stereo not shown) [Compound 28, 1-(7-(2-(6-Chloro-8-fluoro-4-(4-propionylpiperazin-1-yl)quinazolin-7-yl)-3-fluorophenoxy)heptyl)-3-((5-(2,6-dioxopiperidin-3-yl)-4-oxo-5,6-dihydro-4H-thieno[3,4-c]pyrrol-1-yl)methyl)urea]			< 10%	
C=CC(=O)N1CCN(c2ncnc3c(F)c(-c4c(F)cccc4OCCCCCCCNC(=O)NCc4scc5c4CN(C4CCC(=O)NC4=O)C5=O)c(Cl)cc23)CC1 (stereo not shown) [Compound 27, 1-(7-(2-(4-(4-Acryloylpiperazin-1-yl)-6-chloro-8-fluoroquinazolin-7-yl)-3-fluorophenoxy)heptyl)-3-((5-(2,6-dioxopiperidin-3-yl)-4-oxo-5,6-dihydro-4H-thieno[3,4-c]pyrrol-1-yl)methyl)urea]			< 10%	
C=CC(=O)N1CC(N2Cc3ccc(-c4cc(O)cc5ccccc45)cc3N(CCCCNCc3ccc(OCc4scc5c4CN([C@H]4CCC(=O)NC4=O)C5=O)cc3)C2=O)C1 [Compound 16, (S)-3-(1-((4-(((4-(3-(1-Acryloylazetidin-3-yl)-7-(3-hydroxynaphthalen-1-yl)-2-oxo-3,4-dihydroquinazolin-1(2H)-yl)butyl)amino)methyl)phenoxy)methyl)-4-oxo-4H-thieno[3,4-c]pyrrol-5(6H)-yl)piperidine-2,6-dione]			≥ 50%	
CCC(=O)N1CC(N2Cc3ccc(-c4cc(O)cc5ccccc45)cc3N(CC(=O)NCCCCCCCN3CCC(c4cc(F)cc5c4CN(C4CCC(=O)NC4=O)C5=O)CC3)C2=O)C1 (stereo not shown) [Compound 35, N-(7-(4-(2-(2,6-Dioxopiperidin-3-yl)-6-fluoro-1-oxoisoindolin-4-yl)piperidin-1-yl)heptyl)-2-(7-(3-hydroxynaphthalen-1-yl)-2-oxo-3-(1-propionylazetidin-3-yl)-3,4-dihydroquinazolin-1(2H)-yl)acetamide]			10 to 25%	
CC(=O)N1CCN(c2ncnc3c(F)c(-c4c(F)cccc4OCCOCCOCCOCCNc4cccc5c4C(=O)N(C4CCC(=O)NC4=O)C5=O)c(Cl)cc23)CC1 (stereo not shown) [Compound 31, 4-((2-(2-(2-(2-(2-(4-(4-Acetylpiperazin-1-yl)-6-chloro-8-fluoroquinazolin-7-yl)-3-fluorophenoxy)ethoxy)ethoxy)ethoxy)ethyl)amino)-2-(2,6-dioxopiperidin-3-yl)isoindoline-1,3-dione]			≥ 50%	
CCC(=O)N1CCN(c2ncnc3c(F)c(-c4c(F)cccc4OCCOCCOCCC(=O)NCCOc4cccc5c4C(=O)N(C4CCC(=O)NC4=O)C5=O)c(Cl)cc23)CC1 (stereo not shown) [Compound 8, 3-(2-(2-(2-(6-Chloro-8-fluoro-4-(4-propionylpiperazin-1-yl)quinazolin-7-yl)-3-fluorophenoxy)ethoxy)ethoxy)-N-(2-((2-(2,6-dioxopiperidin-3-yl)-1,3-dioxoisoindolin-4-yl)oxy)ethyl)propanamide]				viability at 1 µM (MOLM-13 cells): ≥ 50%
CCC(=O)N1CC(N2Cc3ccc(-c4cc(O)cc5ccccc45)cc3N(CCNCc3ccc(OCc4scc5c4CN(C4CCC(=O)NC4=O)C5=O)cc3)C2=O)C1 (stereo not shown) [Compound 4, 3-(1-((4-(((2-(7-(3-Hydroxynaphthalen-1-yl)-2-oxo-3-(1-propionylazetidin-3-yl)-3,4-dihydroquinazolin-1(2H)-yl)ethyl)amino)methyl)phenoxy)methyl)-4-oxo-4H-thieno[3,4-c]pyrrol-5(6H)-yl)piperidine-2,6-dione]				viability at 1 µM (MOLM-13 cells): 10 to 25%
C=CC(=O)N1CCN(c2ncnc3c(F)c(-c4c(O)cccc4F)c(Cl)cc23)C(CC(=O)NCCCCCNC(=O)NCc2cc3c(s2)C(=O)N(C2CCC(=O)NC2=O)C3)C1 (stereo not shown) [Compound 13, 2-(4-Acryloyl-1-(6-chloro-8-fluoro-7-(2-fluoro-6-hydroxyphenyl)quinazolin-4-yl)piperazin-2-yl)-N-(5-(3-((5-(2,6-dioxopiperidin-3-yl)-6-oxo-5,6-dihydro-4H-thieno[2,3-c]pyrrol-2-yl)methyl)ureido)pentyl)acetamide]			≥ 50%	
C=CC(=O)N1CCN(c2ncnc3c(F)c(-c4c(F)cccc4OCCOCCOCCC(=O)NCCNc4cccc5c4CN(C4CCC(=O)NC4=O)C5=O)c(Cl)cc23)CC1 (stereo not shown) [Compound 29, 3-(2-(2-(2-(4-(4-Acryloylpiperazin-1-yl)-6-chloro-8-fluoroquinazolin-7-yl)-3-fluorophenoxy)ethoxy)ethoxy)-N-(2-((2-(2,6-dioxopiperidin-3-yl)-1-oxoisoindolin-4-yl)amino)ethyl)propanamide]			< 10%	
